Test results: patent US5177096A, “Substituted 5-((tetrazolyl)alkenyl)imidazoles and pharmaceutical methods of use thereof” (SmithKline Beecham Corporation, priority 1990, dated 1993)
Read-outs that look alike come from different tables or passages of the source.

Tested on: pressor response to angiotensin II
Test: Inhibition of pressor response to angiotensin II in conscious rats
Format: in vivo
Details: Rattus norvegicus, read-out: IC50 (dose of compound needed to produce 50% inhibition of the control response to angiotensin II)
Procedure: Angiotensin II antagonist activity of the compounds of Formula (I) is assessed by in vitro and in vivo methods. In vitro antagonist activity is determined by the ability of the compounds to compete with ^125 I-angiotensin II for binding to vascular angiotensin II receptors and by their ability to antagonize the contractile response to angiotensin II in the isolated rabbit aorta. In vivo activity is evaluated by the efficacy of the compounds to inhibit the pressor response to exogenous angiotensin II in conscious rats and to lower blood pressure in a rat model of renin dependent hypertension.
Rats are prepared with indwelling femoral arterial and venous catheters and a stomach tube (Gellai et al., Kidney Int. 15:419, 1979). Two to three days following surgery the rats are placed in a restrainer and blood pressure is continuously monitored from the arterial catheter with a pressure transducer and recorded on a polygraph. The change in mean arterial pressure in response to intravenous injections of […] angiotensin II is compared at various time points prior to and following the administration of the compounds intravenously or orally at doses of 3 to 300 mg/kg. The dose of compound needed to produce 50% inhibition of the control response to angiotensin II (IC50) is used to estimate the potency of the compounds.

**Q.** `CCCCc1ncc(/C=C(\Cc2cccs2)c2nnn[nH]2)n1Cc1ccccc1Cl` [Example 1, (E)-1-[2-n-Butyl-1-{(2-chlorophenyl)methyl}-1H-imidazol-5-yl]-2-(1H-tetrazol-5-yl)-3-(2-thienyl)-1-propene] was tested. Which ED50 (iv) did it give?
**A.** 8 mg/kg

**Q.** And the ED50 (po, orally)?
**A.** 13 mg/kg
